ChEMBL document CHEMBL6127101, “Wee1 inhibitor optimization through deep-learning-driven decision making” (Eur J Med Chem, 2024)

How the values were obtained:
[1] = system: NCI-H446; assay: Inhibition of cell viability of human NCI-H446 cells incubated for 72 hrs by Cell Titer-Glo assay; conditions: NCI-H446, 72 h
[2] = target: Wee1-like protein kinase (Homo sapiens, UniProt P30291); assay: Inhibition of Wee-1 (unknown origin) using Poly-Lys Tyr as substrate incubated for 60 mins in presence of ATP by ADP-Glo Kinase assay
Sequence of Wee1-like protein kinase (P30291 whole entry): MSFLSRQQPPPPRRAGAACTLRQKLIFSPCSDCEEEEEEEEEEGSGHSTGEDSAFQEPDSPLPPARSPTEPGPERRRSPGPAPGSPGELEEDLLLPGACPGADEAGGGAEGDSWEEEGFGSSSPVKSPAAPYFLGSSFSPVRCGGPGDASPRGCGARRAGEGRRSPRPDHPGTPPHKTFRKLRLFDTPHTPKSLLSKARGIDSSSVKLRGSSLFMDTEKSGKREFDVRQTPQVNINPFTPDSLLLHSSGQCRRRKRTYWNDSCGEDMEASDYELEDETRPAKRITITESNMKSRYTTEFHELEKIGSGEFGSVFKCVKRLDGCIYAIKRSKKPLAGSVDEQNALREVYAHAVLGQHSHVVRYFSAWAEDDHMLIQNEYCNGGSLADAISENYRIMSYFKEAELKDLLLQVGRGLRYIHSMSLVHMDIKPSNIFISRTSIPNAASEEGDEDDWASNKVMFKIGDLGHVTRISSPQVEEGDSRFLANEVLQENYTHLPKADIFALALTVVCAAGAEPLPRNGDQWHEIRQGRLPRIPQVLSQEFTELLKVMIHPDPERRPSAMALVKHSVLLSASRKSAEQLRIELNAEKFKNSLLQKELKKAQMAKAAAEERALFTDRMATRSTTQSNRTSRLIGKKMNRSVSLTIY

[3] = system: OVCAR-3; assay: Inhibition of cell viability of human OVCAR-3 cells incubated for 72 hrs by Cell Titer-Glo assay; format: functional, cell-based; conditions: OVCAR-3, 72 h
[4] = system: WiDr; assay: Inhibition of cell viability of human WiDr cells incubated for 72 hrs by Cell Titer-Glo assay; format: functional, cell-based
[5] = system: C-33-A; assay: Inhibition of cell viability of human C-33-A cells incubated for 72 hrs by Cell Titer-Glo assay; format: functional, cell-based
[6] = system: A-427; assay: Inhibition of cell viability of human A-427 cells incubated for 72 hrs by Cell Titer-Glo assay; format: functional, cell-based; conditions: A-427, 72 h
[7] = system: C-33-A; assay: Inhibition of cell viability of human C-33-A cells incubated for 72 hrs by Cell Titer-Glo assay relative to control; format: functional

Row | SMILES | IC50 [1] [nM] | IC50 [2] [nM] | IC50 [3] [nM] | IC50 [4] [nM] | IC50 [5] [nM] | IC50 [6] [nM] | inhibition (INH) [7] [%]
1 | CC1(N)CCN(c2ccc(Nc3ncc(-c4cnco4)c(-c4cc(N5CC[C@H](N)C5)ns4)n3)cc2)CC1 | > 10000 | 47.1 |  |  |  |  | 
2 | CC1(N)CCN(c2ccc(Nc3ncc(-c4cnco4)c(-c4cc5ccc(CO)cc5o4)n3)cc2)CC1 |  | 13.5 |  |  |  |  | 
3 | COc1cc(Nc2ncc(-c3cnco3)c(-c3cnc(N4CC[C@H](O)C4)s3)n2)ccc1N1CCN(C)CC1 | 1410 | 22.4 | 1840 | 1470 | 410 | 589 | 
4 | CC1(N)CCN(c2ccc(Nc3ncc(-c4cnco4)c(-c4cc5ccccc5o4)n3)cc2)CC1 | 709 | 13.5 | 1500 |  |  | 1450 | 
5 | CC1(N)CCN(c2ccc(Nc3ncc(-c4cnco4)c(-c4cccc(C(C)(C)O)c4)n3)cc2)CC1 |  | 158 |  |  |  |  | 
6 | CC1(N)CCN(c2ccc(Nc3ncc(-c4cnco4)c(-c4cnc(N5CC(O)C5)s4)n3)cc2)CC1 |  | 33.7 |  |  |  |  | 
7 | Cc1cc(-c2ccnc(-c3nc(Nc4ccc(N5CCC(C)(N)CC5)cc4)ncc3-c3cnco3)c2)n[nH]1 |  | 895 |  |  |  |  | 
8 | CC1(N)CCN(c2ccc(Nc3ncc(-c4cnco4)c(-c4snc(N5CCC(N)C5)c4F)n3)cc2)CC1 (stereo not given) |  | 47.1 |  |  |  |  | 
9 | CN1CCN(c2ccc(Nc3ncc(-c4cnco4)c(-c4cnc(N5CC[C@H](O)C5)s4)n3)cc2)CC1 | 1660 | 20.9 | 2110 | 2170 | 527 | 565 | 

The next molecules have a lower IC50 [2] than those just listed; values first:

Row | IC50 [1] [nM] | IC50 [2] [nM] | IC50 [3] [nM] | SMILES | IC50 [4] [nM] | IC50 [5] [nM] | IC50 [6] [nM] | inhibition (INH) [7] [%]
10 | 540 | 4.2 | 430 | CN1CCN(c2ccc(Nc3ncc(-c4cncs4)c(-c4cnc(N5CC[C@H](O)C5)s4)n3)cc2)CC1 | 1110 | 167 | 362 | 
11 | 313 | 3.7 | 252 | COc1cc(Nc2ncc(-c3cncs3)c(-c3cnc(N4CC(O)C4)s3)n2)ccc1N1CCN(C)CC1 | 415 | 105 | 163 | 
12 | 562 | 3.6 | 414 | CN1CCN(c2ccc(Nc3ncc(-c4cnco4)c(-c4cnc(N5CC[C@H](F)C5)s4)n3)cc2)CC1 | 423 | 130 | 211 | 
13 | 622 | 3.6 | 352 | CN1CCN(c2ccc(Nc3ncc(-c4cncs4)c(-c4cnc(N5CC(O)C5)s4)n3)cc2)CC1 | 1020 | 277 | 369 | 
14 | 300 | 2.5 | 212 | COc1cc(Nc2ncc(-c3cnco3)c(-c3cnc(N4CC[C@H](F)C4)s3)n2)ccc1N1CCN(C)CC1 | 186 | 62.6 | 115 | 
15 | 1160 | 2.3 | 736 | CN1CCN(c2ccc(Nc3ncc(-c4cncs4)c(-c4cc5ccccc5o4)n3)cc2)CC1 | 855 | 458 | 463 | 
16 | 417 | 2 | 229 | COc1cc(Nc2ncc(-c3cncs3)c(-c3cnc(N4CC[C@H](O)C4)s3)n2)ccc1N1CCN(C)CC1 | 538 | 99.5 | 152 | 
17 | 93.9 | 2 | 86.7 | COc1cc(Nc2ncc(-c3cncs3)c(-c3cnc(N4CC[C@H](F)C4)s3)n2)ccc1N1CCN(C)CC1 | 85 | 23.1 | 34.5 | 
18 | 2040 | 1.9 |  | COc1cc(Nc2ncc(-c3cncs3)c(-c3cc4ccccc4o3)n2)ccc1N1CCN(C)CC1 |  |  |  | 
19 | 150 | 1.8 | 161 | CN1CCN(c2ccc(Nc3ncc(-c4cncs4)c(-c4cnc(N5CC[C@H](F)C5)s4)n3)cc2)CC1 | 203 |  | 98.2 | 43.6
20 | 250 | 1.3 | 245 | C=CCn1c(=O)c2cnc(Nc3ccc(N4CCN(C)CC4)cc3)nc2n1-c1ccc2c(n1)[C@@](O)(CC)CC2 [AZENOSERTIB] | 256 | 382 | 371 | 
